From ChEMBL document CHEMBL1133251, “Synthesis and biological evaluation of 1-azabicyclo-[3.2.1]octanes: new dopamine transporter inhibitors” (Bioorg Med Chem Lett, 2000) come the findings set out here.

Molecules are shown by their SMILES.

Assay [1] deals with T1, Sodium-dependent dopamine transporter (Rattus norvegicus, UniProt P23977). Description: Inhibition of [3H]DA binding to dopamine transporter of rat brain synaptosomes. It is filed as subcellular.
Assay [2] addresses T1, Sodium-dependent dopamine transporter. Description: Inhibition of [3H]- Mazindol binding to dopamine transporter of rat striatal membrane.
For assay [3], the target named is Norepinephrine transporter (Rattus norvegicus, UniProt Q9WTR4). The assay can be described thus: Inhibition of [3H]NE binding to norepinephrine transporter of rat brain synaptosomes. It is filed as subcellular.
Chain of Norepinephrine transporter (Q9WTR4 whole entry): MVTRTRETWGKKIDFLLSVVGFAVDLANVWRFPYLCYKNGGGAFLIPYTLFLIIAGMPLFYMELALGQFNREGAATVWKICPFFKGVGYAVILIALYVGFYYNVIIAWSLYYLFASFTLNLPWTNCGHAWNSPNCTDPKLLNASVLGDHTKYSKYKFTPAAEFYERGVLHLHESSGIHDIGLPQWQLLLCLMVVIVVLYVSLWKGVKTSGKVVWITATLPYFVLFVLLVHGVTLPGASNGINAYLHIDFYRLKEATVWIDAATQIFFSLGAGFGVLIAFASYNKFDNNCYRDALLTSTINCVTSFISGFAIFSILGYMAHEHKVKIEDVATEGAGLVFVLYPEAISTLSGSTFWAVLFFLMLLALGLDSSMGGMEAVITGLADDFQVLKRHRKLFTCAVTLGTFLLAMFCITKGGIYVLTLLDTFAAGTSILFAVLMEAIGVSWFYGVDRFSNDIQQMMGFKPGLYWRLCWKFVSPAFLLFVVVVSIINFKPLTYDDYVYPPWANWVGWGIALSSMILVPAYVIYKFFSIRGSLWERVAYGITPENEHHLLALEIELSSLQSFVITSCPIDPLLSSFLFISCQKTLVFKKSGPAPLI
Assay [4] deals with Sodium-dependent serotonin transporter (Rattus norvegicus, UniProt P31652). Description: Inhibition of [3H]-5-HT binding to serotonin transporter of rat brain synaptosomes. It is filed as subcellular.
Chain of Sodium-dependent serotonin transporter (P31652 whole entry): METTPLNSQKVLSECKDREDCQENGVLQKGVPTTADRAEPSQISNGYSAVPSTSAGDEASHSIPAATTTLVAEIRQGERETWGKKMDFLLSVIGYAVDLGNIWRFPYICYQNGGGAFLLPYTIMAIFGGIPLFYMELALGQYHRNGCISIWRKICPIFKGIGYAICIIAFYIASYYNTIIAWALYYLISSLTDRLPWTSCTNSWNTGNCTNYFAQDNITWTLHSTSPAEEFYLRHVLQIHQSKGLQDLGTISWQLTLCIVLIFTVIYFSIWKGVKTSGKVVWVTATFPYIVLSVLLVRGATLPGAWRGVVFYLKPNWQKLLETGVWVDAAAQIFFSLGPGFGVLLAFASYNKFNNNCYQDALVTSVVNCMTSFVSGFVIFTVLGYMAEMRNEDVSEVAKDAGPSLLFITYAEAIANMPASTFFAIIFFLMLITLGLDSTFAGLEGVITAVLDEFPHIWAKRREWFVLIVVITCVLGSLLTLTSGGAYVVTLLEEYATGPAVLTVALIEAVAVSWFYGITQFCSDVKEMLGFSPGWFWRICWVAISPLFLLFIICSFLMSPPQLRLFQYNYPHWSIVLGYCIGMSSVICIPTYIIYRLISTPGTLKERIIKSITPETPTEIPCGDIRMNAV

T1 sequence (P23977 whole entry): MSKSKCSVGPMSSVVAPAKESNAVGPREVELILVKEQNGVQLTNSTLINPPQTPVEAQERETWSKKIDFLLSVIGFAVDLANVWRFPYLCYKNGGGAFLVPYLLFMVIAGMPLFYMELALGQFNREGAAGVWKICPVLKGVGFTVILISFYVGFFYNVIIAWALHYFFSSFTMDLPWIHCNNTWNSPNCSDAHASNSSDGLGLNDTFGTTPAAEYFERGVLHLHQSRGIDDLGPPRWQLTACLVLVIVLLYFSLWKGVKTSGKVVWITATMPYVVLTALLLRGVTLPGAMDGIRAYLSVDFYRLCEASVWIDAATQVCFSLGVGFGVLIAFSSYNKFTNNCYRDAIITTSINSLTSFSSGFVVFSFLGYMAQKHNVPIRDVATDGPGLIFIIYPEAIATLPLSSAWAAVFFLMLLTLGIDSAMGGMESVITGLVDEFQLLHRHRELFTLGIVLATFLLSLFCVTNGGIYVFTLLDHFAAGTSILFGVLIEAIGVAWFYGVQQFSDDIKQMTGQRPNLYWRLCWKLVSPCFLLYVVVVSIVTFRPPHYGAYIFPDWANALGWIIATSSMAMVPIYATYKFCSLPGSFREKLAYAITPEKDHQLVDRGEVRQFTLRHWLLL

A word on the Ki: it is a measure of affinity in units of concentration, obtained from inhibition or displacement. High values mean weaker binding, low ones tighter binding. Take `CN1CCC(c2ccc(Cl)cc2)C(C(=O)OCCC(c2ccccc2)c2ccccc2)C1` (single isomer, unassigned; (+)): the Ki in assay [1] turned out to be 1160 nM; in assay [2] it was 420 nM; in assay [3] it was 3140 nM; in assay [4], 2590 nM.

Take `CO/N=C1/CN2CC[C@@H](c3ccc(Cl)cc3)C1C2` (some centres undefined): the Ki in assay [3] is 232 nM; in assay [4], above 2000 nM.

Turning to `COC(=O)C1CN(C)CCC1c1ccc(Cl)cc1` (single isomer, unassigned; (+)), the Ki in assay [1] was found to be 228 nM; in assay [2], 248 nM; in assay [3] it was 90 nM; in assay [4] it was 5880 nM.

Regarding `CC(C)(C)O/N=C1\CN2CC[C@@H](c3ccc(Cl)cc3)C1C2` (some centres undefined), the Ki in assay [1] turned out to be 725 nM; in assay [2] it was 641 nM; in assay [3] it was 287 nM; in assay [4] it was 137 nM.

For `Clc1ccc([C@@H]2CCN3C/C(=N\OCc4ccccc4)C2C3)cc1` (some centres undefined), the results for the Ki in assay [1], in assay [3] and in assay [4] were 1860 nM, 1550 nM and 117 nM, respectively.

Turning to `CN1CCC(c2ccc(Cl)cc2)C(C(=O)OCCCc2ccccc2)C1` (single isomer, unassigned; (+)), the Ki in assay [1] came to 1420 nM; in assay [2], 1490 nM; in assay [3], 72 nM; in assay [4], 2160 nM.

As to `Clc1ccc([C@@H]2CCN3C/C(=N\OCCCc4ccccc4)C2C3)cc1` (some centres undefined), the Ki worked out at 41 nM in assay [1], 53 nM in assay [2], 483 nM in assay [3] and 292 nM in assay [4].

As to `CO/N=C1\CN2CC[C@@H](c3ccc(Cl)cc3)C1C2` (single isomer, unassigned; (+)), the Ki in assay [3] is above 4000 nM; in assay [4] it was 1790 nM.

Turning to `CO/N=C1/CN2CC[C@H](c3ccc(Cl)cc3)C1C2` (some centres undefined), the Ki in assay [3] came to 240 nM; in assay [4] it was 856 nM.

Turning to `CO/N=C1\CN2CC[C@H](c3ccc(Cl)cc3)C1C2` (stereo in doubt; (+)-7), the Ki is 871 nM in assay [3] and 2640 nM in assay [4].

With `CO/N=C1\CN2CC[C@@H](c3ccc(Cl)cc3)C1C2` (stereo in doubt; (-)-7), the results for the inhibitory constant (Ki) in assay [3] and in assay [4] were 652 nM and 2530 nM, respectively.

For the molecule `CO/N=C1\CN2CC[C@H](c3ccc(Cl)cc3)C1C2` (stereo in doubt; (-)-6), the Ki amounted to 305 nM in assay [3] and 503 nM in assay [4].

Take `CN1CCC(c2ccc(Cl)cc2)C(C(=O)OCCCCCc2ccccc2)C1` (single isomer, unassigned; (+)): the Ki in assay [1] was found to be 53 nM; in assay [2] it was 52 nM; in assay [3], 382 nM; in assay [4], 1790 nM.
